Structures can show the parent of a compound that is named as a salt. Blank lines part the entries; values can stand above or below the compound they belong to.
Tests used:
[1] = target: T1, purified human platelet fibrinogen receptor (GPIIb/IIIa) (Homo sapiens, UniProt P05106+P08514); test: Test (b): GPIIb/IIIa ELISA, inhibition of biotinylated fibrinogen binding; details: for IC50: read-out: Test (b): pIC50 (-log(IC50)), 50% inhibition of biotinylated fibrinogen binding to GPIIb/IIIa (converted)
T1 construct: is isolated from human platelet lysates; from tissue
T1 sequence (P08514 32-887 limits assumed): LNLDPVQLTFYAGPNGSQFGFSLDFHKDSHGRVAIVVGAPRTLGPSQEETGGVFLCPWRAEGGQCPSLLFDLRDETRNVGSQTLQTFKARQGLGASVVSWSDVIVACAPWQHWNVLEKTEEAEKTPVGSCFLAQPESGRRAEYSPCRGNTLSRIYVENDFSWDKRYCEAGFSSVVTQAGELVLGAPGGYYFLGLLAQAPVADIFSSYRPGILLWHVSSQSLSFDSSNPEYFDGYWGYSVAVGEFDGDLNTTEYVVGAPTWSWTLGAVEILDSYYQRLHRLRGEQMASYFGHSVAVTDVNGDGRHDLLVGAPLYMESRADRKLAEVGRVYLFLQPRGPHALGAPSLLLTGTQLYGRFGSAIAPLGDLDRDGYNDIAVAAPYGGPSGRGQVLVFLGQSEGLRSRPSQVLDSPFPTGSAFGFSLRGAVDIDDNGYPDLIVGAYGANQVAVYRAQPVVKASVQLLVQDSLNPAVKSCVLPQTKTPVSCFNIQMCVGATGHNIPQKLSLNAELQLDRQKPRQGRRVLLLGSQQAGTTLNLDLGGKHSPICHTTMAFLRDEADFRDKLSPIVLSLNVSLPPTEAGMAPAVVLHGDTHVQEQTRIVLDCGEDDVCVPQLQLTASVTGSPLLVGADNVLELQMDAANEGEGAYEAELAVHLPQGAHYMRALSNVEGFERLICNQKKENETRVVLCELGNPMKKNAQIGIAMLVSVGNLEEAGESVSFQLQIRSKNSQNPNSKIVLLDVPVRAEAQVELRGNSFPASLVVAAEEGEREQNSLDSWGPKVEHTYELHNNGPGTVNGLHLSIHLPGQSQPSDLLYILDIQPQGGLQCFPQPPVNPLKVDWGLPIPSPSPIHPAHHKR
T1 sequence (P08514 891-1039 limits assumed): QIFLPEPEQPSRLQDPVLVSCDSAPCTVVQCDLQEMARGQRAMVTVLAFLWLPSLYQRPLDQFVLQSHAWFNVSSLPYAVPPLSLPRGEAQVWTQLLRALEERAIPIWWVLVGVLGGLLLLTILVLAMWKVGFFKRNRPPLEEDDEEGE
T1 sequence (P05106 27-788): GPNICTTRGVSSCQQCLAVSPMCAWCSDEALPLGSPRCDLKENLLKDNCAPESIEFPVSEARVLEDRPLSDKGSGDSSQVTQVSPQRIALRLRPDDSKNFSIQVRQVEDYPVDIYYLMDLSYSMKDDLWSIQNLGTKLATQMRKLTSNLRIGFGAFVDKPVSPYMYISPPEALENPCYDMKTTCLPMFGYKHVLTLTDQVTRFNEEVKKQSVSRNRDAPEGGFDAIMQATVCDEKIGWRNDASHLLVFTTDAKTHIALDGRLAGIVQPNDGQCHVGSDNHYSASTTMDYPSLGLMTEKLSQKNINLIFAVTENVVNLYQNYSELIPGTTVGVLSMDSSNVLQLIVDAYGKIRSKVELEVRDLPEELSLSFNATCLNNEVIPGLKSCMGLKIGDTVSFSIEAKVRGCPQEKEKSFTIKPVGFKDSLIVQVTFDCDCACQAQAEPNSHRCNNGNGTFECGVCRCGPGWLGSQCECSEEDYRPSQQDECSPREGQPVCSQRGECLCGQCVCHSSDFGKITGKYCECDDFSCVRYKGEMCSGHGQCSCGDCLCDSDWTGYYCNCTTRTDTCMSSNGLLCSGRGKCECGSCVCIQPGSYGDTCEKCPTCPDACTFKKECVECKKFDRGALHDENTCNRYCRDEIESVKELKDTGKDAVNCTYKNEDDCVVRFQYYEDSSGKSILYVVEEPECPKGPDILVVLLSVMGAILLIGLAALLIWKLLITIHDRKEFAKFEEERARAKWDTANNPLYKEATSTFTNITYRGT
Outline: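 GPIIb/IIIa affinity-purified from human platelet lysates was coated on plates, blocked, then incubated 2 h at 30 °C with biotinylated fibrinogen ([…]) plus compound. Bound fibrinogen detected via streptavidin/biotinylated HRP and TMB, OD at 650 nm; pIC50 for 50% binding inhibition.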

[2] = target: T2, human, citrated, platelet-rich plasma (Homo sapiens, UniProt P05106+P08514); test: Test (a): inhibition of ADP stimulated platelet aggregation (Born); assay type: cell-based; details: ADP induced aggregation of human platelet-rich plasma; for Kb: read-out: Test (a): pA2 value indicating potency of platelet aggregation inhibition (converted)
T2 construct: aggregating human, citrated, platelet-rich plasma; endogenous in cells; host or cells: human platelets in citrated platelet-rich plasma
T2 sequence (P08514 32-887 limits assumed): as the sequence (P08514 32-887 limits assumed) above
T2 sequence (P08514 891-1039 limits assumed): as the sequence (P08514 891-1039 limits assumed) above
T2 sequence (P05106 27-788): as the sequence (P05106 27-788) above
Outline: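 ADP added to human citrated platelet-rich plasma to build aggregation dose-response curves, repeated with increasing test compound (generally 10-^5 M to 10-^10 M). pA2 derived from the 50% response value for ADP with vs. without compound, averaged over several concentrations.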

[3] = tested on: Alderley Park Wistar rats; test: Repeated oral dose study in the rat (liver effects, tolerability); assay type: in vivo
Method: The following is a description of a study of the effects of the (-)-(3R) compound of Example 246 and the corresponding (3RS)-racemic mixture of Example 203 in the rat. Four groups of ten Alderley Park Wistar rats (each group comprising 5 male and 5 female rats) were dose orally with the (3RS)-racemic mixture of Example 203 at daily doses of 0, 25, 100 or 500 mg/kg. Dosing was continued for a total of seven days. The animals were killed and examined.
Four groups of ten Alderley Park Wistar rats (each group comprising 5 male and 5 female rats) were dosed orally with the (-)-(3R) compound of Example 246 at daily doses of 0, 50, 250 and 1000 mg/kg. The highest dose was not tolerated. After four or five days, four of the animals from this group were killed. The remaining six animals were dosed at 500 mg/kg/day for the remainder of the study. Dosing was continued for a total of fourteen days. The animals were killed and examined.

[4] = tested on: aggregation of human blood platelets; test: Test (a) modified to assess activity on oral administration (ex vivo); assay type: in vivo, dog; details: dogs, 5 mg/kg
Method: Test (a) may be modified so as to assess the effects of a test compound ex vivo on the aggregation of human blood platelets after administration of the test compound to a laboratory animal, such as a rat, rabbit, guinea pig, mouse or dog. For example, groups of four male, fasted Alderley Park Wistar rats are orally dosed with a test compound or appropriate vehicle, and at suitable time intervals (1,3,5 and 8 hours after dosing) animals are anaesthetised with fluothane and bled by heart puncture. Blood is collected into 3.2% citrate (1 part to 9 parts whole blood) and platelet poor plasma (ppp) prepared by centrifugation (4500×g for 10 min). […]
Equal volumes (125 μl) of rat ppp and human prp are mixed together, ADP added, and the whole incubated (37° C.) and stirred (900 rpm) in a BioData platelet aggregometer. Aggregation is induced with ADP and agonist EC50 values calculated for human prp/rat ppp mixtures from animals dosed with test compound or vehicle. A mean concentration ratio (concentration of ADP required to cause a 50% aggregation response in human prp/rat ppp mixtures from animals dosed with antagonist, divided by the concentration of ADP to cause 50% aggregation in human prp/rat ppp mixtures from animals dosed with vehicle) is calculated at each time point.

αv β1 = test: Binding of αv β1 to fibronectin
αv β3 = αv β3 (Homo sapiens, UniProt P05106+P06756); test: Binding of αv β3 to vitronectin; details: read-out: pIC50, binding of αv β3 to vitronectin (converted)
Chain of αv β3 (P06756 31-889 limits assumed): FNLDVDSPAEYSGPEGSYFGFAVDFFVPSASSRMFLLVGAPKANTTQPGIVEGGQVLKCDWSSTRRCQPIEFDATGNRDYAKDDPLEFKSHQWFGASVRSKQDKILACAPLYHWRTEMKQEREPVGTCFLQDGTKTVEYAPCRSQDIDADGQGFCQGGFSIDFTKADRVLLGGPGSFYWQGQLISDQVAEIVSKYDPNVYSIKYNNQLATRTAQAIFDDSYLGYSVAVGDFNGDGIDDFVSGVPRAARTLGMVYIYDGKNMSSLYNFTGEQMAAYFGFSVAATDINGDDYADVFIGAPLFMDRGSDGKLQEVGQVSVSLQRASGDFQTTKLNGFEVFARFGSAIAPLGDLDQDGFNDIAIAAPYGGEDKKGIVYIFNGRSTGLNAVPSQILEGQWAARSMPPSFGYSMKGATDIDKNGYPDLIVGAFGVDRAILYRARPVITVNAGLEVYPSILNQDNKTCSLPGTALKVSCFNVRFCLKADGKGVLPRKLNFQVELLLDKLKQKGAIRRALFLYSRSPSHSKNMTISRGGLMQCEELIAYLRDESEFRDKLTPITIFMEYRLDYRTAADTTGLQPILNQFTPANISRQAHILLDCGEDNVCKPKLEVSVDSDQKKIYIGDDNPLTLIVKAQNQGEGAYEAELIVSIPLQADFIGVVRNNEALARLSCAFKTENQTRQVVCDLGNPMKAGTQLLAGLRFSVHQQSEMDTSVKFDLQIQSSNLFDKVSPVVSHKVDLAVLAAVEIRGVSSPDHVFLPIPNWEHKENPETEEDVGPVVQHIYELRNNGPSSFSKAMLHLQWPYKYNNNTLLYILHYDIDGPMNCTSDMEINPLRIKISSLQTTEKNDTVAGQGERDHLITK
Chain of αv β3 (P06756 891-1048 limits assumed): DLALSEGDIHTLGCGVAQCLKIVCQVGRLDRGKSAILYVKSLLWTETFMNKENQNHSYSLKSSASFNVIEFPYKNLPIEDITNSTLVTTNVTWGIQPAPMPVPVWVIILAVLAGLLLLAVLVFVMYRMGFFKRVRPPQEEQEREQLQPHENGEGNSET
Chain of αv β3 (P05106 27-788): as the sequence (P05106 27-788) above

[5] = purified human platelet GPIIb/IIIa, ELISA

SMILES: COC(=O)COc1ccc(C(=O)CN2CCN(c3ccncc3)CC2)cc1 [Example 1, Methyl 4-[2-[4-(4-pyridyl)piperazin-1-yl]acetyl]phenoxyacetate]
duration of activity when dosed orally [4]: up to 12 hours
IC50 [1, 5]: 398 to 1580 nM
Kb [2]: 158 to 316 nM

SMILES: O=C(O)CCCOc1cccc(N2CCN(c3ccncc3)CC2)c1 [Example 227, 3-[4-(4-Pyridyl)piperazin-1-yl]phenoxybutyric acid]
IC50 [1, 5]: 100 nM
Kb [2]: 2510 nM

SMILES: CCOC(=O)CCCCOc1cccc(N2CCN(c3ccncc3)CC2)c1 [Example 228, Ethyl 3-[4-(4-pyridyl)piperazin-1-yl]phenoxypentanoate]
IC50 [1, 5]: > 100000 nM
Kb [2]: 10000 nM

SMILES: O=C(O)CCCCOc1cccc(N2CCN(c3ccncc3)CC2)c1 [Example 229, 3-[4-(4-Pyridyl)piperazin-1-yl]phenoxypentanoic acid]
IC50 [1, 5]: 79.4 nM
Kb [2]: 3980 nM

SMILES: C[C@@H](COc1ccc(N2CCN(c3ccncc3)CC2)cc1)CC(=O)O.Cl [Example 246, (-)-(3R)-3-Methyl-4-{4-[4-(4-pyridyl)piperazin-1-yl]phenoxy}butyric acid hydrochloride]
pIC50, binding of αv β1 to fibronectin (αv β1): less than 4
IC50 (αv β3): > 100000 nM
IC50 [1, 5]: 22.4 nM
potency as a GPIIb/IIIa antagonist relative to the corresponding (+)-(3S) isomer ([1]; versus (+)-(3S) isomer): greater than 10 fold
Kb [2]: 50.1 nM
toxicity relative to the (3RS)-racemic mixture (by implication) ([3]; rat oral studies compared): less toxic than the (3RS)-racemic mixture of Example 203
adverse effect on the rat liver (conclusion) ([3]; rat, 500 mg/kg/day): no significant adverse effect on the rat liver
adverse effects in the liver ([3]; rat, oral, 250 mg/kg/day, fourteen days): No adverse effects were noted in the livers
tolerability of the highest dose ([3]; rat, oral, 1000 mg/kg daily): not tolerated
adverse effect on the liver ([3]; rat, oral, 1000 mg/kg/day for three or four days then 500 mg/kg/day for ten or eleven days): no adverse effect on the liver

Now from value to compound, other results behind:

Test (b): pIC50 (-log(IC50)), 50% inhibition of biotinylated fibrinogen binding to GPIIb/IIIa [1, 5]: 8
Test (a): pA2 value indicating potency of platelet aggregation inhibition [2]: 7.2
SMILES: CC(COc1ccc(N2CCN(c3ccncc3)CC2)cc1)CC(=O)O (racemic) [Example 203, RS 3-Methyl-4-[4-[4-(4-pyridyl)piperazin-1-yl]phenoxy]butyric acid trifluoroacetate]
adverse effects in the liver ([3]; rat, oral, 500 mg/kg/day, seven days): Adverse effects were noted in the livers of six of the group of ten rats

IC50 [1, 5]: 5010 nM
Kb [2]: 10000 nM
SMILES: COC(=O)[C@H]1CC[C@H](Oc2ccc(N3CCN(c4ccncc4)CC3)cc2)CC1 [Example 230, Trans-methyl-4-[4-[4-(4-pyridyl)piperazin-1-yl]phenoxy]cyclohexyl carboxylate]

IC50 [1, 5]: 31.6 nM
Kb [2]: 200 nM
SMILES: O=C(O)[C@H]1CC[C@H](Oc2ccc(N3CCN(c4ccncc4)CC3)cc2)CC1 [Example 231, Trans-4-[4-[4-(4-pyridyl)piperazin-1-yl]phenoxy]cyclohexane carboxylic acid]

IC50 [1, 5]: 501 nM
Kb [2]: 6310 nM
SMILES: O=C(O)c1ccc(Oc2ccc(N3CCN(c4ccncc4)CC3)cc2)nc1 [Example 233, 6-[4-[4-(4-Pyridyl)piperazin-1yl]phenoxy]pyridine-3-carboxylic acid]

IC50 [1, 5]: 200 nM
Kb [2]: 631 nM
SMILES: O=C(O)C1CCN(C(=O)c2ccc(N3CCN(c4ccncc4)CC3)cc2)CC1 [Example 234, 4-[(4-Pyridyl)piperazin-1-yl]benzoylisonipecotic acid]

IC50 [1, 5]: 200 nM
Kb [2]: 6310 nM
SMILES: O=C(O)C1CCCN(C(=O)c2ccc(N3CCN(c4ccncc4)CC3)cc2)C1 (stereo not shown) [Example 235, 4-[(4-Pyridyl)piperazin-1-yl]benzoylnipecotic acid]

IC50 [1, 5]: 31.6 nM
Kb [2]: 794 nM
SMILES: O=C(O)C1CCCC(Oc2ccc(N3CCN(c4ccncc4)CC3)cc2)C1 (stereo not shown) [Example 237, 3-[4-[4-(Pyridyl)piperazin-1-yl]phenoxy]cyclohexane carboxylic acid]

— patent US5750754A, “Heterocyclic compounds” (Zeneca Limited, priority 1993, dated 1998)
